The values that follow come from patent publication US8309546B2, “Morpholinopurine derivatives” (Daiichi Sankyo Company, Limited, priority 2008, dated 2012).

The test relates to human endometrial cancer cell strain AN3CA tumor. In words: Anti-tumor effect assay using mouse subcutaneous transplantation model. The settings on record: AN3-CA, oral, tumor weight vs negative control, read-out: Anti-tumor effect (tumor growth inhibition rate); for inhibition in vivo at 5 mg/kg/day / inhibition in vivo at 10 mg/kg/day / inhibition in vivo at 2.5 mg/kg/day: 8 or 5 consecutive days depending on compound. It is filed as in vivo, female nude mouse. As for the experimental part:
A tumor section was prepared from a human endometrial cancer cell strain AN3CA tumor mass formed in a female nude mouse as a subcutaneously transplanted tumor and then a xenograft model was prepared by transplanting the tumor section into female nude mouse. Tumor-bearing mice having an estimated tumor volume (long diameter×short diameter×short diameter/2) of 80 to 200 mm^3 were divided, so that there should be no significant difference in the mean estimated tumor volume and body weight as compared with the negative control group to perform a test. The test compound was orally administered at a predetermined dose for 8 consecutive days. On the following day of the final administration day, tumor-bearing mice were anesthetized and exsanguinated to death and a tumor mass was isolated to measure tumor weight (the compounds of Examples 1, 3, 6, 8, 11, 12, and 14). Furthermore, as a similar test, the test compound was orally administered for 5 consecutive days, animals were sacrificed on the final administration day, and tumor weight was measured (the compounds of Examples 60, 63, 75, 77, 79, 89, 92, 107, 108, 109, 110, and 127).
In all the tests, anti-tumor effect was calculated by the following formula. {1−(tumor weight in compound treatment group/tumor weight in negative control group)}×100

SMILES strings stand for the structures.

For `C[C@H](O)C(=O)N1CCN(c2nc3c(N4CCOCC4)nc(-c4cnc(N)nc4)nc3n2CC2CC2)C[C@H]1C` [Example 95, (2S)-1-{(2R)-4-[2-(2-Aminopyrimidin-5-yl)-9-(cyclopropylmethyl)-6-morpholin-4-yl-9H-purin-8-yl]-2-methylpiperazin-1-yl}-1-oxopropan-2-ol], the inhibition in vivo at 5 mg/kg/day turned out to be 44% and the inhibition in vivo at 10 mg/kg/day turned out to be 62%.
For `CC(C)Cn1c(N2CCN(C=O)[C@H](C)C2)nc2c(N3CCOCC3)nc(-c3cnc(N)nc3)nc21` [Example 100, (2R)-4-[2-(2-Aminopyrimidin-5-yl)-9-isobutyl-6-morpholin-4-yl-9H-purin-8-yl]-2-methylpiperazine-1-carboaldehyde], the inhibition in vivo at 2.5 mg/kg/day is 53% and the inhibition in vivo at 5 mg/kg/day amounted to 62%.
Consider `CC(=O)N1CCN(c2nc3c(N4CCOCC4)nc(-c4cnc(N)nc4)nc3n2CC(C)C)C[C@@H]1C` [Example 101, 5-{8-[(3S)-4-Acetyl-3-methylpiperazin-1-yl]-9-isobutyl-6-morpholin-4-yl-9H-purin-2-yl}pyrimidin-2-amine], for which the inhibition in vivo at 2.5 mg/kg/day turned out to be 42% and the inhibition in vivo at 5 mg/kg/day worked out at 69%.
For the compound `CC(C)Cn1c(N2CCN(C=O)[C@@H](C)C2)nc2c(N3CCOCC3)nc(-c3cnc(N)nc3)nc21` [Example 102, (2S)-4-[2-(2-Aminopyrimidin-5-yl)-9-isobutyl-6-morpholin-4-yl-9H-purin-8-yl]-2-methylpiperazine-1-carboaldehyde], the inhibition in vivo at 2.5 mg/kg/day is 54% and the inhibition in vivo at 5 mg/kg/day was determined as 64%.
For the compound `CNc1ncc(-c2nc(N3CCOCC3)c3nc(N4CCN(C(C)=O)[C@@H](C)C4)n(CC(F)(F)F)c3n2)cn1` [Example 107, 5-{8-[(3S)-4-Acetyl-3-methylpiperazin-1-yl]-6-morpholin-4-yl-9-(2,2,2-trifluoroethyl)-9H-purin-2-yl}-N-methylpyrimidin-2-amine], the inhibition in vivo at 5 mg/kg/day stood at 76%. Also, the inhibition in vivo at 1.25 mg/kg/day (120 h, 1.25 mg/kg/day, 5 consecutive days) is 46%.
Regarding `CNc1ncc(-c2nc(N3CCOCC3)c3nc(N4CCN(C(C)=O)[C@H](C)C4)n(CC(F)(F)F)c3n2)cn1` [Example 108, 5-{8-[(3R)-4-Acetyl-3-methylpiperazin-1-yl]-6-morpholin-4-yl-9-(2,2,2-trifluoroethyl)-9H-purin-2-yl}-N-methylpyrimidin-2-amine], the inhibition in vivo at 2.5 mg/kg/day was 53% and the inhibition in vivo at 10 mg/kg/day amounted to 82%.
On to `C[C@H](O)C(=O)N1CCN(c2nc3c(N4CCOCC4)nc(-c4cnc(N)nc4)nc3n2CC(F)(F)F)C[C@@H]1C` [Example 109, (2S)-1-{(2S)-4-[2-(2-Aminopyrimidin-5-yl)-6-morpholin-4-yl-9-(2,2,2-trifluoroethyl)-9H-purin-8-yl]-2-methylpiperazin-1-yl}-1-oxopropan-2-ol], for which, for the setting “120 h, 5 consecutive days”, the inhibition in vivo at 1.875 mg/kg/day was 42% and the inhibition in vivo at 7.5 mg/kg/day was found to be 80%.
The like results for `C[C@H](O)C(=O)N1CCN(c2nc3c(N4CCOCC4)nc(-c4cnc(N)nc4)nc3n2CC(F)(F)F)C[C@H]1C` [Example 110, (2S)-1-{(2R)-4-[2-(2-Aminopyrimidin-5-yl)-6-morpholin-4-yl-9-(2,2,2-trifluoroethyl)-9H-purin-8-yl]-2-methylpiperazin-1-yl}-1-oxopropan-2-ol] were, in that order, 43% and 73%.
As for `C[C@H]1COCCN1c1nc(-c2cnc(N)nc2)nc2c1nc(N1CCN(S(C)(=O)=O)CC1)n2CC(F)(F)F` [Example 127, 5-{6-[(3S)-3-Methylmorpholin-4-yl]-8-[4-(methylsulfonyl)piperazin-1-yl]-9-(2,2,2-trifluoroethyl)-9H-purin-2-yl}pyrimidin-2-amine], the inhibition in vivo at 5 mg/kg/day was found to be 69% and the inhibition in vivo at 10 mg/kg/day is 79%.
